The record followed here is the SangsterLogP compilation.

Broadly, the logP is a log measure of how a compound divides between an organic and an aqueous phase. Turning to `C/C=C(/C)C(=O)O[C@H]1C[C@@](C)(O)C(=O)[C@@H](OC(=O)/C(C)=C\C)[C@@]2(C)CC[C@@](O)(C(C)C)[C@@H]12`, the logP is 3.29.

`C/C=C(/C)C(=O)O[C@H]1[C@@H](O)c2c(ccc3ccc(=O)oc23)OC1(C)C` returned a logP of 3.56.

In turn, `C/C=C(\C)C(=O)OC1c2c(ccc3ccc(=O)oc23)OC(C)(C)[C@@H]1OC(=O)/C(C)=C/C` (stereo not given in full) gave a log partition coefficient (logP) of 4.41.

`COc1c2ccoc2c(OCC=C(C)C)c2oc(=O)ccc12` came in with a logP of 3.86.

`O=c1cc(O)c2ccccc2o1` returned a logP of 1.42.

As for `COc1ccc2ccc(=O)oc2c1CC1OC1(C)C` (stereo not given), the logP was determined as 3.03.

The molecule `COc1cc2ccc(=O)oc2cc1OC` had a logP of 2.45.

In turn, `COc1ccc2c(C)cc(=O)oc2c1` returned a logP of 3.16.

Regarding `CC(C)=CCOc1ccc2ccc(=O)oc2c1`, the logP was 3.91.

`C/C=C(/C)C(=O)O[C@@H]1[C@H](OC(C)=O)c2c(ccc3ccc(=O)oc23)OC1(C)C` registered a logP of 3.75.
